How the values were obtained:
Format in all cases: in vivo
[1] = system: downy bromegrass (Bromus tectorum); assay: Test B preemergence, downy bromegrass; conditions: scale 0 to 100
Text: (§1) Seeds of plant species selected from blackgrass (Alopecurus myosuroides), downy bromegrass (Bromus tectorum), green foxtail (Setaria viridis), Italian ryegrass (Lolium multiflorum), wheat (Triticum aestivum), wild oat (Avena fatua), catchweed bedstraw (Galium aparine), bermudagrass (Cynodon dactylon), Surinam grass (Brachiaria decumbens), cocklebur (Xanthium strumarium), corn (Zea mays), large crabgrass (Digitaria sanguinalis), woolly cupgrass (Eriochloa villosa), giant foxtail (Setaria faberii), goosegrass (Eleusine indica), johnsongrass (Sorghum halepense), kochia (Kochia scoparia), lambsquarters (Chenopodium album), morningglory (Ipomoea coccinea), nightshade (eastern black nightshade, Solanum ptycanthum), yellow nutsedge (Cyperus esculentus), pigweed (Amaranthus retroflexus), ragweed (common ragweed, Ambrosia elatior), soybean (Glycine max), sunflower (common oilseed sunflower, Helianthus annuus), Russian thistle (Salsola kali), and velvetleaf (Abutilon theophrasti) were planted into a blend of loam soil and sand and treated preemergence with test compounds formulated in a non-phytotoxic solvent mixture which included a surfactant. Treated plants and controls were maintained in a greenhouse for 13 to 15 days, after which time all species were compared to controls and visually evaluated. Plant response ratings, summarized in Table B, are based on a scale of 0 to 100 where 0 is no effect and 100 is complete control. A dash (-) response means no test result.

[2] = system: Surinam grass (Brachiaria decumbens); assay: Test B preemergence, Surinam grass; conditions: Preemergence, scale 0 to 100
Text: as §1

[3] = system: giant foxtail (Setaria faberi); assay: Test A preemergence, giant foxtail; conditions: 0 to 100 scale (0 no effect, 100 complete control)
Outline: (§2)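 In a greenhouse, loam–sand potted species were treated with surfactant-formulated compound, preemergence via directed soil spray and postemergence at 2–10 cm height, one- to two-leaf stage. Response assessed visually at about ten days; 100 means complete control.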

[4] = system: ducksalad (Heteranthera limosa); assay: Test B flooded paddy test, ducksalad; conditions: Flood, scale 0 to 100
Outline: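 Step one: raise plants to 2 leaves. Step two: flood pots 3 cm over the soil and apply compound into the water, keeping this depth. Step three: after 13–15 greenhouse days, score visually versus controls, 0–100, where 100 means complete control.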

[5] = system: woolly cupgrass (Eriochloa villosa); assay: Test B preemergence, woolly cupgrass; conditions: scale 0 to 100
Text: as §1

[6] = system: pigweed (Amaranthus retroflexus); assay: Test A postemergence, pigweed; conditions: 0 to 100 scale (0 no effect, 100 complete control)
Outline: as §2

[7] = system: johnsongrass (Sorghum halepense); assay: Test B preemergence, johnsongrass; conditions: scale 0 to 100
Text: as §1

wild oat (Avena fatua) = assay: Test B preemergence, wild oat; conditions: scale 0 to 100
Text: as §1

[8] = system: morningglory (Ipomoea spp.); assay: Test A preemergence, morningglory; conditions: 0 to 100 scale (0 no effect, 100 complete control)
Outline: as §2

[9] = system: velvetleaf (Abutilon theophrasti); assay: Test A postemergence, velvetleaf; conditions: 0 to 100 scale (0 no effect, 100 complete control)
Outline: as §2

[10] = system: barnyardgrass (Echinochloa crus-galli); assay: Test A postemergence, barnyardgrass; conditions: 0 to 100 scale (0 no effect, 100 complete control)
Outline: as §2

[11] = system: large crabgrass (Digitaria sanguinalis); assay: Test A preemergence, large crabgrass; conditions: 0 to 100 scale (0 no effect, 100 complete control)
Outline: as §2

[12] = system: bermudagrass (Cynodon dactylon); assay: Test B preemergence, bermudagrass; conditions: scale 0 to 100
Text: as §1

soybean (Glycine max) = assay: Test B preemergence, soybean; conditions: Preemergence, scale 0 to 100
Text: as §1

[13] = system: ragweed (common ragweed, Ambrosia elatior); assay: Test B preemergence, ragweed; conditions: scale 0 to 100
Text: as §1

[14] = system: large crabgrass (Digitaria sanguinalis); assay: Test B preemergence, large crabgrass; conditions: scale 0 to 100
Text: as §1

[15] = system: green foxtail (Setaria viridis); assay: Test B preemergence, green foxtail; conditions: scale 0 to 100
Text: as §1

[16] = system: morningglory (Ipomoea coccinea); assay: Test B preemergence, morningglory; conditions: scale 0 to 100
Text: as §1

[17] = system: barnyardgrass (Echinochloa crus-galli); assay: Test A preemergence, barnyardgrass; conditions: 0 to 100 scale (0 no effect, 100 complete control)
Outline: as §2

## CC1(C)CC(S(=O)(=O)Cc2c(C(F)(F)F)nc3n(c2=O)CCS3)=NO1 [Compound 6]
[1]; 16 g ai/ha
  Plant response rating, Bromegrass, Downy: 0
[1]; 31 g ai/ha
  Plant response rating, Bromegrass, Downy: 20
[1]; 62 g ai/ha
  Plant response rating, Bromegrass, Downy: 20
[1]; 125 g ai/ha
  Plant response rating, Bromegrass, Downy: 50
[2]; 16 g ai/ha
  Plant response rating, Surinam Grass: 20
[2]; 31 g ai/ha
  Plant response rating, Surinam Grass: 60
[2]; 62 g ai/ha
  Plant response rating, Surinam Grass: 98
[2]; 125 g ai/ha
  Plant response rating, Surinam Grass: 100
[3]; 125 g ai/ha
  Plant response rating, Foxtail, Giant: 80
[3]; 500 g ai/ha
  Plant response rating, Foxtail, Giant: 100
[4]; 62 g ai/ha
  Plant response rating, Ducksalad: 40
[4]; 250 g ai/ha
  Plant response rating, Ducksalad: 65
[5]; 16 g ai/ha
  Plant response rating, Cupgrass, Woolly: 60
[5]; 31 g ai/ha
  Plant response rating, Cupgrass, Woolly: 98
[5]; 62 g ai/ha
  Plant response rating, Cupgrass, Woolly: 98
[5]; 125 g ai/ha
  Plant response rating, Cupgrass, Woolly: 100
[6]; 125 g ai/ha
  Plant response rating, Pigweed: 50
[6]; 500 g ai/ha
  Plant response rating, Pigweed: 90
[7]; 16 g ai/ha
  Plant response rating, Johnsongrass: 45
[7]; 31 g ai/ha
  Plant response rating, Johnsongrass: 70
[7]; 62 g ai/ha
  Plant response rating, Johnsongrass: 98
[7]; 125 g ai/ha
  Plant response rating, Johnsongrass: 100
Wild oat (Avena fatua); 16 g ai/ha
  Plant response rating, Oat, Wild: 30
Wild oat (Avena fatua); 31 g ai/ha
  Plant response rating, Oat, Wild: 45
Wild oat (Avena fatua); 62 g ai/ha
  Plant response rating, Oat, Wild: 60
Wild oat (Avena fatua); 125 g ai/ha
  Plant response rating, Oat, Wild: 60
[8]; 125 g ai/ha
  Plant response rating, Morningglory: 90
[8]; 500 g ai/ha
  Plant response rating, Morningglory: 100
[9]; 125 g ai/ha
  Plant response rating, Velvetleaf: 60
[9]; 500 g ai/ha
  Plant response rating, Velvetleaf: 80
[10]; 125 g ai/ha
  Plant response rating, Barnyardgrass: 70
[10]; 500 g ai/ha
  Plant response rating, Barnyardgrass: 80
[11]; 125 g ai/ha
  Plant response rating, Crabgrass, Large: 80
[11]; 500 g ai/ha
  Plant response rating, Crabgrass, Large: 100
[12]; 16 g ai/ha
  Plant response rating, Bermudagrass: 100
[12]; 31 g ai/ha
  Plant response rating, Bermudagrass: 100
[12]; 62 g ai/ha
  Plant response rating, Bermudagrass: 100
[12]; 125 g ai/ha
  Plant response rating, Bermudagrass: 100
Soybean (Glycine max); 16 g ai/ha
  Plant response rating, Soybean: 0
Soybean (Glycine max); 31 g ai/ha
  Plant response rating, Soybean: 0
Soybean (Glycine max); 62 g ai/ha
  Plant response rating, Soybean: 0
Soybean (Glycine max); 125 g ai/ha
  Plant response rating, Soybean: 0
[13]; 16 g ai/ha
  Plant response rating, Ragweed: 0
[13]; 31 g ai/ha
  Plant response rating, Ragweed: 0
[13]; 62 g ai/ha
  Plant response rating, Ragweed: 25
[13]; 125 g ai/ha
  Plant response rating, Ragweed: 35
[14]; 16 g ai/ha
  Plant response rating, Crabgrass, Large: 95
[14]; 31 g ai/ha
  Plant response rating, Crabgrass, Large: 100
[14]; 62 g ai/ha
  Plant response rating, Crabgrass, Large: 100
[14]; 125 g ai/ha
  Plant response rating, Crabgrass, Large: 100
[15]; 16 g ai/ha
  Plant response rating, Foxtail, Green: 50
[15]; 31 g ai/ha
  Plant response rating, Foxtail, Green: 50
[15]; 62 g ai/ha
  Plant response rating, Foxtail, Green: 50
[15]; 125 g ai/ha
  Plant response rating, Foxtail, Green: 100
[16]; 16 g ai/ha
  Plant response rating, Morningglory: 0
[16]; 31 g ai/ha
  Plant response rating, Morningglory: 0
[16]; 62 g ai/ha
  Plant response rating, Morningglory: 0
[16]; 125 g ai/ha
  Plant response rating, Morningglory: 0
[17]; 125 g ai/ha
  Plant response rating, Barnyardgrass: 70
[17]; 500 g ai/ha
  Plant response rating, Barnyardgrass: 90

## CC1(C)CC(S(=O)(=O)Cc2c(C(F)(F)F)nc3ccsn3c2=O)=NO1 [Compound 16]
[1]; 16 g ai/ha
  Plant response rating, Bromegrass, Downy: 0
[1]; 31 g ai/ha
  Plant response rating, Bromegrass, Downy: 0
[1]; 62 g ai/ha
  Plant response rating, Bromegrass, Downy: 0
[1]; 125 g ai/ha
  Plant response rating, Bromegrass, Downy: 30
[2]; 16 g ai/ha
  Plant response rating, Surinam Grass: 0
[2]; 31 g ai/ha
  Plant response rating, Surinam Grass: 55
[2]; 62 g ai/ha
  Plant response rating, Surinam Grass: 95
[2]; 125 g ai/ha
  Plant response rating, Surinam Grass: 98
[3]; 125 g ai/ha
  Plant response rating, Foxtail, Giant: 90
[3]; 500 g ai/ha
  Plant response rating, Foxtail, Giant: 90
[4]; 62 g ai/ha
  Plant response rating, Ducksalad: 40
[4]; 250 g ai/ha
  Plant response rating, Ducksalad: 40
[5]; 16 g ai/ha
  Plant response rating, Cupgrass, Woolly: 0
[5]; 31 g ai/ha
  Plant response rating, Cupgrass, Woolly: 25
[5]; 62 g ai/ha
  Plant response rating, Cupgrass, Woolly: 95
[5]; 125 g ai/ha
  Plant response rating, Cupgrass, Woolly: 98
[6]; 125 g ai/ha
  Plant response rating, Pigweed: 10
[6]; 500 g ai/ha
  Plant response rating, Pigweed: 50
[7]; 16 g ai/ha
  Plant response rating, Johnsongrass: 0
[7]; 31 g ai/ha
  Plant response rating, Johnsongrass: 45
[7]; 62 g ai/ha
  Plant response rating, Johnsongrass: 85
[7]; 125 g ai/ha
  Plant response rating, Johnsongrass: 95
Wild oat (Avena fatua); 16 g ai/ha
  Plant response rating, Oat, Wild: 0
Wild oat (Avena fatua); 31 g ai/ha
  Plant response rating, Oat, Wild: 20
Wild oat (Avena fatua); 62 g ai/ha
  Plant response rating, Oat, Wild: 30
Wild oat (Avena fatua); 125 g ai/ha
  Plant response rating, Oat, Wild: 60
[8]; 125 g ai/ha
  Plant response rating, Morningglory: 70
[8]; 500 g ai/ha
  Plant response rating, Morningglory: 80
[9]; 125 g ai/ha
  Plant response rating, Velvetleaf: 30
[9]; 500 g ai/ha
  Plant response rating, Velvetleaf: 60
[10]; 125 g ai/ha
  Plant response rating, Barnyardgrass: 80
[10]; 500 g ai/ha
  Plant response rating, Barnyardgrass: 90
[11]; 125 g ai/ha
  Plant response rating, Crabgrass, Large: 90
[11]; 500 g ai/ha
  Plant response rating, Crabgrass, Large: 90
Soybean (Glycine max); 16 g ai/ha
  Plant response rating, Soybean: 0
Soybean (Glycine max); 31 g ai/ha
  Plant response rating, Soybean: 0
Soybean (Glycine max); 62 g ai/ha
  Plant response rating, Soybean: 0
Soybean (Glycine max); 125 g ai/ha
  Plant response rating, Soybean: 0
[13]; 16 g ai/ha
  Plant response rating, Ragweed: 0
[13]; 31 g ai/ha
  Plant response rating, Ragweed: 0
[13]; 62 g ai/ha
  Plant response rating, Ragweed: 0
[13]; 125 g ai/ha
  Plant response rating, Ragweed: 0
[14]; 16 g ai/ha
  Plant response rating, Crabgrass, Large: 70
[14]; 31 g ai/ha
  Plant response rating, Crabgrass, Large: 95
[14]; 62 g ai/ha
  Plant response rating, Crabgrass, Large: 100
[14]; 125 g ai/ha
  Plant response rating, Crabgrass, Large: 100
[15]; 16 g ai/ha
  Plant response rating, Foxtail, Green: 0
[15]; 31 g ai/ha
  Plant response rating, Foxtail, Green: 20
[15]; 62 g ai/ha
  Plant response rating, Foxtail, Green: 85
[15]; 125 g ai/ha
  Plant response rating, Foxtail, Green: 98
[16]; 16 g ai/ha
  Plant response rating, Morningglory: 0
[16]; 31 g ai/ha
  Plant response rating, Morningglory: 0
[16]; 62 g ai/ha
  Plant response rating, Morningglory: 0
[16]; 125 g ai/ha
  Plant response rating, Morningglory: 0
[17]; 125 g ai/ha
  Plant response rating, Barnyardgrass: 50
[17]; 500 g ai/ha
  Plant response rating, Barnyardgrass: 80

— patent US20100099561A1, “HETEROBICYCLIC ALKYLTHIO-BRIDGED ISOXAZOLINES” (E.I. DU PONT DE NEMOURS AND COMPANY, priority 2008, published 2010)
